Reference: PubChem BioAssay AID248 (DTP/NCI, 2004)
Toxic doses and inconclusive results are not listed. Rule as the data show it: active = T/C of 150% or more; inactive = T/C below 125%.

System: L1210 leukemia ip in BDF1 mice, survival T/C
Assay: NCI In Vivo Anticancer Drug Screen. Data for tumor model L1210 Leukemia (intraperitoneal) in B6D2F1 (BDF1) mice
Settings: endpoint: mean survival time, higher = longer survival
Summary of the method: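 Tumor cells were implanted, animals were treated, and survival was followed. The result divides the treated measurement by the vehicle-control measurement.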

[1] = dose: 12.5 mg/kg/injection, schedule: Q01DX009 (ip), vehicle: saline
[2] = dose: 25.0 mg/kg/injection, schedule: Q01DX009 (ip), vehicle: saline
[3] = dose: 100.0 mg/kg/injection, schedule: Q01DX009 (ip), vehicle: Klucel (hydroxypropylcellulose) (HPC)
[4] = dose: 100.0 mg/kg/injection, schedule: Q04DX003 (ip), vehicle: Klucel (hydroxypropylcellulose) (HPC)
[5] = dose: 100.0 mg/kg/injection, schedule: Q04DX003 (ip), vehicle: saline with Tween-80
[6] = dose: 200.0 mg/kg/injection, schedule: Q04DX003 (ip), vehicle: saline with Tween-80
[7] = dose: 400.0 mg/kg/injection, schedule: Q04DX003 (ip), vehicle: saline with Tween-80

Measured: T/C

C[C@@H]1C[C@H]2[C@@H]3CCC4=CC(=O)C=C[C@]4(C)[C@@]3(F)[C@@H](O)C[C@]2(C)[C@@]1(O)C(=O)CO
inactive: dose: 3.12 mg/kg/injection, schedule: Q01DX009 (ip), vehicle: Klucel (hydroxypropylcellulose) (HPC) 102 % of control | dose: 6.25 mg/kg/injection, schedule: Q01DX009 (ip), vehicle: Klucel (hydroxypropylcellulose) (HPC) 95 % of control | dose: 10.0 mg/kg/injection, schedule: Q01DX Z (sc), vehicle: steriod suspending solution 112 % of control | dose: 12.5 mg/kg/injection, schedule: Q01DX009 (ip), vehicle: Klucel (hydroxypropylcellulose) (HPC) 98 % of control | [1] 111 % of control | dose: 25.0 mg/kg/injection, schedule: Q01DX009 (ip), vehicle: Klucel (hydroxypropylcellulose) (HPC) 96 % of control | dose: 25.0 mg/kg/injection, schedule: Q01DX009 (ip), vehicle: saline sonified 99 % of control | [2] 96 % of control | dose: 25.0 mg/kg/injection, schedule: Q01DX Z (sc), vehicle: steriod suspending solution 112 % of control | dose: 37.5 mg/kg/injection, schedule: Q04DX003 (ip), vehicle: saline with Tween-80 93 % of control | dose: 50.0 mg/kg/injection, schedule: Q01DX009 (ip), vehicle: Klucel (hydroxypropylcellulose) (HPC) 91 % of control | dose: 50.0 mg/kg/injection, schedule: Q01DX009 (ip), vehicle: saline sonified 99 % of control | dose: 50.0 mg/kg/injection, schedule: Q01DX009 (ip), vehicle: saline 107 % of control | dose: 50.0 mg/kg/injection, schedule: Q01DX Z (sc), vehicle: steriod suspending solution 110 % of control | dose: 75.0 mg/kg/injection, schedule: Q04DX003 (ip), vehicle: saline with Tween-80 95 % of control | [3] 91 % of control | dose: 100.0 mg/kg/injection, schedule: Q01DX009 (ip), vehicle: saline sonified 106 % of control | [4] 102 % of control

O=Cc1[nH]c(=O)[nH]c(=O)c1Cc1ccc(Cl)cc1
inactive: [5] 98 % of control | [6] 102 % of control

Cc1ccc(NC(=O)Oc2ccc3ccccc3c2)c([N+](=O)[O-])c1
inactive: [5] 99 % of control | [6] 99 % of control | [7] 89 % of control

[Br][Pb]([Br])([c]1ccccc1)[c]1ccccc1
inactive: [3] 117 % of control | [4] 91 % of control | dose: 200.0 mg/kg/injection, schedule: Q01DX009 (ip), vehicle: Klucel (hydroxypropylcellulose) (HPC) 98 % of control | dose: 200.0 mg/kg/injection, schedule: Q04DX003 (ip), vehicle: Klucel (hydroxypropylcellulose) (HPC) 100 % of control | dose: 400.0 mg/kg/injection, schedule: Q04DX003 (ip), vehicle: Klucel (hydroxypropylcellulose) (HPC) 94 % of control

COc1ccc2c(=O)c(O)c(-c3ccc(OC)c(OC)c3)oc2c1
inactive: dose: 50.0 mg/kg/injection, schedule: Q01DX001 (ip), vehicle: saline 97 % of control | dose: 100.0 mg/kg/injection, schedule: Q01DX001 (ip), vehicle: saline 94 % of control | dose: 200.0 mg/kg/injection, schedule: Q01DX001 (ip), vehicle: saline 92 % of control | dose: 400.0 mg/kg/injection, schedule: Q01DX001 (ip), vehicle: saline 94 % of control

CNC(=Nc1ccccc1)c1ccc(NC(=O)c2ccc(C(=O)Nc3ccc(C(=Nc4ccccc4)NC)cc3)cc2)cc1
inactive: dose: 15.0 mg/kg/injection, schedule: Q01DX Z (ip), vehicle: saline 100 % of control | dose: 30.0 mg/kg/injection, schedule: Q01DX Z (ip), vehicle: saline 105 % of control | dose: 60.0 mg/kg/injection, schedule: Q01DX Z (ip), vehicle: saline 102 % of control

CC(=O)OC(CC/C(C)=C/COC1CCCCO1)C(C)(C)O (stereo not given)
inactive: dose: 100.0 mg/kg/injection, schedule: Q01DX001 (ip), vehicle: saline with Tween-80 102 % of control | dose: 100.0 mg/kg/injection, schedule: Q01DX009 (ip), vehicle: saline with Tween-80 95 % of control | dose: 200.0 mg/kg/injection, schedule: Q01DX001 (ip), vehicle: saline with Tween-80 103 % of control | dose: 200.0 mg/kg/injection, schedule: Q01DX009 (ip), vehicle: saline with Tween-80 98 % of control | dose: 400.0 mg/kg/injection, schedule: Q01DX001 (ip), vehicle: saline with Tween-80 105 % of control | dose: 400.0 mg/kg/injection, schedule: Q01DX009 (ip), vehicle: saline with Tween-80 96 % of control

COc1ccc(OCC(O)CN2CCN(c3ccc(Cl)cc3)CC2)cc1 (stereo not given)
inactive: [5] 93 % of control | [6] 90 % of control | [7] 98 % of control

CCCCCCCCN1CCCNCC1
inactive: dose: 6.25 mg/kg/injection, schedule: Q01DX009 (ip), vehicle: saline 96 % of control | [1] 102 % of control | [2] 96 % of control | dose: 25.0 mg/kg/injection, schedule: Q04DX003 (ip), vehicle: saline 121 % of control | dose: 50.0 mg/kg/injection, schedule: Q04DX003 (ip), vehicle: saline 109 % of control | dose: 100.0 mg/kg/injection, schedule: Q04DX003 (ip), vehicle: saline 87 % of control
